# Reference: patent publication US12521425B2, “Method of liver cancer treatment with safranal-based formulations” (priority 2019, dated 2026)
# Experiments:
# HepG2 cells [1] = test: MTT assay, cell viability; type: cell-based; details: HepG2, 50-900 μM for 24, 48 and 72 hours; read-out: IC50, inhibition of cellular viability
# Method: MTT assay. HepG2 cells were seeded at a density of 5000 cells/well in 96-well plates in 100 μL of complete growth medium. Cells were allowed to attach before being treated with different concentrations of safranal (Sigma Aldrich) (50 μM, 100 μM, 500 μM, 700 μM and 900 μM) for 24, 48 and 72 hours. After which, the cells were treated with 3-[4,5-dimethylthiazol-2-yl]-2,5-diphenyltratrazolium bromide (MTT) (Sigma Aldrich) and incubated for 3 hours. The formed formazan crystals were dissolved using DMSO and the absorbance of the resulting product was measured at 570 nm using an Epoch microplate spectrophotometer (Bio-Tek). Cell viability is presented as percentile of the untreated control which was calculated accordingly: Percent of viable cells=(Abs. of treated cells/Abs. of control cells)×100. *p≤0.05, **p≤0.001, ***p≤0.0001.
# HepG2 cells [2] = test: Caspase-3 and 7 activities (Caspase-Glo 3/7); type: cell-based; details: HepG2, 500 and 700 μM, 24 hours
# Method: Caspase-3 and 7 activities. HepG2 were seeded at a density of 5000 cells/well in a 96-well plate, and were allowed to attach. After which, cells were treated with 500 and 700 μM of safranal for 24 hours. Caspase-3 and 7 activities were detected using Caspase-Glo® 3/7 Assay kit according to manufacturer instructions (Promega). Luminescent signal was detected using GloMax Discover System (Promega).
# [3] = male rats, oral (Hosseinzadeh et al., 2013); cited from earlier work
# HepG2 cells [4] = test: Colony formation assay; type: cell-based; details: HepG2, 30-100 μM for 24 hours
# Method: Colony formation. HepG2 cell were seeded at a density of 1000 cells/6-well plate, and left to incubate for 24 hours to allow attachment before being treated with different concentrations of safranal (30, 50, 100 μM) for 24 hours. After which, culture media containing safranal was replaced by fresh growth media without safranal. Culture media was replenished every 3 days, until visible colonies were formed. Colonies were fixed with absolute methanol, then stained with 0.5% crystal violet. Colonies were then imaged and analyzed using ImageJ plugin ColonyArea. Results are represented as the percent of area occupied by colonies. To confirm, an absorption-based method was carried out to validate results obtained from ImageJ. Briefly, stained colonies were treated with 10% acetic acid solution to dissolve the crystal violet stain. After which, 100 μL of each triplicate sample was transferred to a 96-well plate (in triplicates), and absorbance was measured using an Epoch microplate spectrophotometer (BioTek). *p≤0.05, **p≤0.001, ***p≤0.0001
# [5] = tested on: DEN-induced hepatic neoplasia; test: Western blotting of liver in DEN-induced HCC model; type: in vivo, male Wistar rats; details: liver of HCC rats
# Method: (§1) A modified version of the protocol described by DePeralta et al. (2016) and Schiffer et al. (2005) was used here to establish the hepatocarcinogenesis model.
# (§2) On the first 15 weeks, the control PBS group was treated with 1×PBS, whereas the experimental groups were given an intraperitoneal injection (IP) of 50 mg/kg of diethylnitrosoamine (DEN, Sigma Aldrich), a widely used chemical for inducing cancer, once a week. DEN was diluted with 1×PBS. Following a one-week break (week 16), the next three weeks (weeks 17 to 19) of treatment commenced. All drugs were administrated by oral gavage. All doses were chosen according to literature (Alsaied et al., 2014; Karafakioglu et al., 2017). For the HCC+sorafenib group, the drug (Carbosynth Limited) was administered at a dose of 10 mg/kg, five days a week. For the HCC+safranal group, the drug (Sigma Aldrich) was administered at a dose of 200 mg/kg, five days a week. For the HCC+safranal+sorafenib group, the drugs were administered at a dose of 200 mg/kg safranal+10 mg/kg sorafenib, five days a week. Both safranal and sorafenib were diluted with 1×PBS and drops of Tween 80. […] After 24-hours from last treatment, the rats were euthanized by mild diethyl ether and dissected in equal conditions. Blood and whole liver were collected.
# One hundredth gm (10 mg) liver was homogenized using 200 μl RIPA buffer (Sigma Aldrich) mixed with 2 μl protease inhibitor and 2 μl phosphatase inhibitor (Sigma Aldrich), and centrifuged at 4° C., 15,000 rpm for 15 minutes. Whole cell lysate was taken and stored at −80° C. Protein concentration was measured by Pierce BCA Protein Assay Kit with Promega GloMax Discover. A total of 35 μg of protein was loaded on a sodium dodecyl sulfate-polyacrylamide gel electrophoresis gel. The gel was then transferred to polyvinylidene difluoride membrane. The membrane was then blocked with 5% BSA in TBST for one hour at room temperature. Membranes were incubated with anti-Proliferating Cell Nuclear Antigen (PCNA), anti-PolyADP-ribose Polymerase (PARP), anti-caspase-3 (Cell Signaling Technology Inc.), anti-caspase-9 (Novus Biologicals), anti-Bax, anti-Bcl-2 (Santa Cruz), anti-Cdk1, anti-Cyclin B1, anti-Cdc25B (Cell Signaling Technology Inc.) over night at 4° C., then with HRP conjugated secondary, anti-mouse or anti-rabbit, antibody (Cell Signaling Technology Inc.) for one hour at room temperature. All primary and secondary antibodies were diluted in 5% BSA in TBST. Blots were incubated in WesternSure PREMIUM Chemiluminescent Substrate for antibodies' detection. Signal was visualized using Bio-Rad ChemiDoc XRS+System. Band density and quantification was done using ImageJ (Amin et al., 2011). Total protein was used as a loading control and stained using SYPRO Ruby protein gel stain according to the protocol provided (Thermo Fisher Scientific) (Aldridge et al., 2008; Hu et al., 2016).
# [6] = tested on: DEN-induced hepatic neoplasia; test: Serum ALT and AST in DEN-induced HCC model; type: in vivo, male Wistar rats; details: HCC rats, oral gavage 5 days a week, weeks 17-19, safranal 200 mg/kg, sorafenib 10 mg/kg, mean±SEM, n=6
# Method: as §1, §2
# Rats were euthanized then blood was collected by decapitation and processed for later investigation. The blood was collected in collection tubes (BD Vacutainer) and serum was separated by centrifugation at 1200× g for 10 minutes. Serum was collected and flash frozen immediately then stored at −80° C. for further analysis.
# Alanine Transaminase (ALT), and Aspartate Aminotransferase (AST) assays were performed using commercial kits (Abcam), according to the protocol provided. ALT and AST activities were measured spectrophotometrically using Epoch by BioTek.
smiles,measurement,setting,value
CC1=C(C=O)C(C)(C)CC=C1 [safranal],IC50,HepG2 cells [1],500 µM
same,activity of executioner caspases-3 and -7,HepG2 cells [2],increased
same,oral LD50,[3],5.53 mL/kg
same,colony formation,HepG2 cells [4],inhibited colony formation of HepG2 cells in a dose-dependent manner
same,Bax/Bcl-2 ratio,[5],favored the apoptotic effect
same,TDP1 levels,[5],lower levels of TDP1
same,expression of pro-caspases-9 & 3 and whole PARP,[5]; compared to HCC group,significantly decreased
same,expression of anti-apoptotic protein Bcl-2,[5]; compared to HCC groups,decreased
same,expression of pro-apoptotic protein Bax,[5]; compared to HCC groups,increased
same,"Cdk1, cyclin B1, Cdc25B levels",[5]; comparing to HCC animals,significantly decreased their levels
same,PCNA (proliferation-related protein),[5]; n=4,significantly downregulated PCNA
same,ALT,[6],"10.93 ± 0.29^b**^,c* mU/ml"
same,AST,[6],7.80 ± 2.02 mU/ml
